Bridge positions count the residues as written; N and C are the ends. Peptide text beside a SMILES is read from it.
Tests used:
[1] = stability of linaclotide compositions with formaldehyde scavenger compounds, Cys1-IMD by RP-HPLC; format: physicochemical; conditions: 40° C., 75% relative humidity; for % Cys1-IMD after storage 4 Weeks / % Cys1-IMD after storage 8 Weeks / % Cys1-IMD after storage 13 Week: percent of chromatogram area, labeled canister (formaldehyde stressor); for % decrease in Cys1-IMD as compared to negative control (after 13 weeks) / % Cys1-IMD after storage 13 Week: 13 weeks
Method: 60 cc square HPDE bottle (with 33 mm caps with induction seals) were loaded with (i) capsules containing beads coated with 145 μg or 290 μg of linaclotide, a binder, calcium chloride and leucine with an approximate molar ratio of CaCl2:leucine:linaclotide of 60:30:1, (ii) either no formaldehyde scavenger compound (negative control) or a canister comprising one of the formaldehyde scavenger compounds disclosed in Table 3, and (iii) optionally a canister containing 3 grams of a silica gel desiccant.
In addition, some of the linaclotide compositions contained a formaldehyde stressor (in particular, an adhesive label on the desiccant canister that was applied by the manufacturer of the desiccant canister (Sud Chemie) (its presence in some linaclotide compositions is indicated in the table as “labeled canister”). Regarding the formaldehyde stressor canister, it was observed by applicants that the canister emits about 27.5 ug of formaldehyde in 24 hours at 60° C.
The linaclotide compositions were stored in a 40° C., 75% relative humidity stability chamber. Next, the quantity of Cys1-IMD in each linaclotide composition was determined following 4, 8 and 13 week storage via Reverse Phase-HPLC using a gradient elution with UV detection at 220 nm. Quantitation was based on percent of chromatogram area.
Test samples of linaclotide capsules are prepared by emptying the bead contents into flasks, adding diluent and shaking for 30 minutes. The analysis used the bead contents of a composite of 6 or 8 capsules (for 290 μg and 145 μg, respectively). Operating conditions for the analytical test method by HPLC are outlined in Table 2.

[2] = system: adult patients with IBS-C; experiment: double-blind placebo-controlled studies in IBS-C (Study 1 and Study 2); format: in vivo, human; conditions: 290 mcg discontinued
Method: In this regard, the efficacy of oral dosage forms comprising […] for the management of IBS-C was established in two double-blind, placebo-controlled, randomized, multicenter studies in adult patients. A total of 800 patients in Study 1 and 804 patients in Study 2 (overall mean age of 43.9 years [range 18-87 years with 5.3% ≧65 years of age], 90.1% female, 77.4% white, 18.8% black, and 12.0% Hispanic) received treatment with LINZESS 290 mcg or placebo once daily and were evaluated for efficacy. All patients met Rome II criteria for IBS and were required to report a mean abdominal pain score of ≧3 on a 0-to-10-point numeric rating scale, <3 complete spontaneous bowel movements (CSBMs; a CSBM is a spontaneous bowel movement [SBM] that is associated with a sense of complete evacuation; an SBM is a bowel movement occurring in the absence of laxative use), and ≦5 SBMs per week during a 2-week baseline period. The study designs were identical through the first 12 weeks, and thereafter differed only in that Study 1 included a 4-week randomized withdrawal (RW) period, and Study 2 continued for 14 additional weeks (total of 26 weeks) of double-blinded treatment.
Efficacy of the oral dosage form of linaclotide was assessed using responder and change-from-baseline endpoints. Results for endpoints were based on information provided daily by patients. […]

Compound | % Cys1-IMD after storage 4 Weeks [1] [%] | % Cys1-IMD after storage 8 Weeks [1] [%] | % decrease in Cys1-IMD as compared to negative control (after 13 weeks) [1] [%] | % Cys1-IMD after storage 13 Week [1] [%] | rebound of bowel symptoms after discontinuation (4-week RW period) [2]
NC(=O)C[C@H](N)C(=O)O [asparagine] | 0.56 | 1.11 | −59 | 1.45 | –
COC(=O)[C@H](Cc1ccccc1)NC(=O)[C@@H](N)CC(=O)O [aspartame] (H-Asp-Phe-OMe) | 0.82 | 1.54 | −27 | 2.58 | –
CNC[C@H](O)[C@@H](O)[C@H](O)[C@H](O)CO [d-meglumine] | 0.59 | 0.81 | −76 | 0.84 | –
NCC(=O)NCC(=O)O [glycine-glycine] (H-Gly-Gly-OH) | 0.89 | 1.40 | −44 | 1.98 | –
N[C@@H](Cc1c[nH]cn1)C(=O)O [histidine] | 0.60 | 0.68 | −72 | 1.00 | –
CC(C)C[C@H](N)C(=O)O [leucine] | 0.84 | 1.26 | −31 | 2.44 | –
C[C@@H]1NC(=O)[C@@H]2CCCN2C(=O)[C@H](CC(N)=O)NC(=O)[C@@H]2CSSC[C@H](N)C(=O)N[C@H]3CSSC[C@H](NC1=O)C(=O)N[C@@H]([C@@H](C)O)C(=O)NCC(=O)N[C@H](C(=O)N[C@@H](Cc1ccc(O)cc1)C(=O)O)CSSC[C@H](NC(=O)[C@H](Cc1ccc(O)cc1)NC(=O)[C@H](CCC(=O)O)NC3=O)C(=O)N2 [linaclotide] (H-CCEYCCNPACTGCY-OH; disulfide 1-6, 2-10, 5-13 (inferred); N-terminus and C-terminus assumed) | – | – | – | – | no evidence of rebound worsening
CC(C)C[C@H](N)C(=O)O [lyophilized leucine, leucine] | 0.52 | 0.78 | −61 | 1.36 | –
NCCCC[C@H](N)C(=O)O [lysine] | 0.87 | 1.27 | −47 | 1.87 | –
